Data on 13 compounds can be found in patent US20240366775A1, “HUMAN TRANSFERRIN RECEPTOR BINDING ANTIBODY-PEPTIDE CONJUGATE” (PEPTIDREAM INC., priority 2021, published 2024).

The target in the assay is human transferrin receptor (hTfR) (Homo sapiens, UniProt P02786). The assay is described as follows: SPR measurement of peptide binding to hTfR. From the text:
Note that ND indicates No Data (here, it means that no data was obtained).
A general note: In SPR one partner is held on a chip, and binding of the other changes the refractive index at the surface.

Where [1] appears, read: measured on the naked peptide (1st to 15th amino acids, without linker) corresponding to the listed linker-attached peptide, read-out: KD value of binding to hTfR by SPR.
[2] abbreviates: naked peptide (1st to 15th amino acids, without linker part) corresponding to the listed linker-attached peptide, read-out: SPR of naked peptide (KD for binding to hTfR).

Each structure is given as a SMILES string. Like-named read-outs stand apart in the source and are kept apart here.

human transferrin receptor (hTfR), sequence (P02786 whole entry): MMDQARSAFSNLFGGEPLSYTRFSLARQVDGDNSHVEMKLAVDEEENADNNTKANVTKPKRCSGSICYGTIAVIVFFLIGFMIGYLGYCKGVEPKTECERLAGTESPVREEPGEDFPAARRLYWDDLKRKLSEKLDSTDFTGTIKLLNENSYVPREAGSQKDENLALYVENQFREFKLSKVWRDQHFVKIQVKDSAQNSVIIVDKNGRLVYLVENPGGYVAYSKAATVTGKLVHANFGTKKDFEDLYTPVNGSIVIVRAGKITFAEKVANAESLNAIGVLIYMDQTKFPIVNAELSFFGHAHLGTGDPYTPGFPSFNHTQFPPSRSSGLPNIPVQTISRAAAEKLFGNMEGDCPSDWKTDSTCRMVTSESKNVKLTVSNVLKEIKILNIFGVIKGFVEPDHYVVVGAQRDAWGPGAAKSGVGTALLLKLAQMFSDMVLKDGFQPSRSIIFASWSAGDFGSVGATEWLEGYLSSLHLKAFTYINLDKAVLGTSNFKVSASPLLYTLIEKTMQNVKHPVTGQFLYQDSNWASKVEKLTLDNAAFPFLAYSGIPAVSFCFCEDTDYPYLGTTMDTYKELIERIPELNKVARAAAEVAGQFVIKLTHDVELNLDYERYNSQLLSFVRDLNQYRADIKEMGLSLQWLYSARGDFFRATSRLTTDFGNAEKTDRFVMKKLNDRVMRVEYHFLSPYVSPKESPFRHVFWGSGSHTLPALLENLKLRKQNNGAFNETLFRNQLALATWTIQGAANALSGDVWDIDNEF

As a reminder, the Kd is the constant that tells how readily two partners part at equilibrium. As to `CC[C@H](C)[C@@H]1NC(=O)[C@H](Cc2ccc(O)cc2)NC(=O)[C@H](Cc2ccc(O)cc2)NC(=O)[C@H](CC(N)=O)NC(=O)[C@H](Cc2c[nH]c3ccccc23)NC(=O)[C@H](C(C)C)NC(=O)[C@H](Cc2ccccc2)N(C)C(=O)[C@H](C(C)C)NC(=O)[C@H](C)NC(=O)CSC[C@@H](C(=O)NCC(=O)NCC(=O)N[C@H](CCC(=O)O)C(=O)NCC(=O)NCC(=O)N[C@H](CCC(=O)O)C(=O)NCC(=O)NCC(=O)N[C@H](CCC(=O)O)C(=O)NCC(=O)NCC(=O)N[C@H](CCCCNC(=O)C2CCC(CN3C(=O)C=CC3=O)CC2)C(N)=O)NC(=O)[C@H](Cc2ccc(O)cc2)N(C)C(=O)[C@H](Cc2ccc(O)cc2)NC(=O)[C@H](CCCNC(=N)N)NC(=O)[C@H](CCCNC(=N)N)NC(=O)[C@H]([C@@H](C)CC)NC1=O` (stereo partly shown) [894_3m_Linke04_dk(Mal)], under setting [1], the Kd fell in the range of 1 to 100 nM.

Consider `CC[C@H](C)[C@@H]1NC(=O)[C@H](Cc2ccc(O)cc2)NC(=O)[C@H](Cc2ccc(O)cc2)NC(=O)[C@H](CC(N)=O)NC(=O)[C@H](Cc2c[nH]c3ccccc23)N(C)C(=O)[C@H](C(C)C)NC(=O)[C@H](Cc2ccccc2)NC(=O)[C@H](C(C)C)NC(=O)[C@H](C)NC(=O)CSC[C@@H](C(=O)NCC(=O)NCC(=O)N[C@@H](CCC(=O)O)C(=O)N[C@@H](CO)C(=O)N[C@@H](CCC(=O)O)C(=O)N[C@@H](CO)C(=O)N[C@@H](CCCCNC(=O)C2CCC(CN3C(=O)C=CC3=O)CC2)C(N)=O)NC(=O)[C@H](Cc2ccc(O)cc2)N(C)C(=O)[C@H](Cc2ccc(O)cc2)NC(=O)[C@H](CCCNC(=N)N)NC(=O)[C@H](CCCNC(=N)N)NC(=O)[C@H]([C@@H](C)CC)NC1=O` (stereo partly shown) [894_5m_GGESES_K(Mal)], for which, under setting [1], the Kd is less than 1 nM.

Take `CC[C@H](C)[C@@H]1NC(=O)[C@H](Cc2ccc(O)cc2)NC(=O)[C@H](Cc2ccc(O)cc2)NC(=O)[C@H](CC(N)=O)NC(=O)[C@H](Cc2c[nH]c3ccccc23)N(C)C(=O)[C@H](C(C)C)NC(=O)[C@H](Cc2ccccc2)NC(=O)[C@H](C(C)C)NC(=O)[C@H](C)NC(=O)CSC[C@@H](C(=O)NCC(=O)NCC(=O)N[C@@H](CCCNC(=N)N)C(=O)N[C@@H](CO)C(=O)N[C@@H](CCC(=O)O)C(=O)N[C@@H](CO)C(=O)N[C@@H](CCCCNC(=O)C2CCC(CN3C(=O)C=CC3=O)CC2)C(N)=O)NC(=O)[C@H](Cc2ccc(O)cc2)N(C)C(=O)[C@H](Cc2ccc(O)cc2)NC(=O)[C@H](CCCNC(=N)N)NC(=O)[C@H](CCCNC(=N)N)NC(=O)[C@H]([C@@H](C)CC)NC1=O` (stereo partly shown) [894_5m_GGRSES_K(Mal)]: the Kd under setting [1] is less than 1 nM.

Regarding `CC[C@H](C)[C@@H]1NC(=O)[C@H](Cc2ccc(O)cc2)NC(=O)[C@H](Cc2ccc(O)cc2)NC(=O)[C@H](CC(N)=O)NC(=O)[C@H](Cc2c[nH]c3ccccc23)N(C)C(=O)[C@H](C(C)C)NC(=O)[C@H](Cc2ccccc2)NC(=O)[C@H](C(C)C)NC(=O)[C@H](C)NC(=O)CSC[C@@H](C(=O)NCC(=O)NCC(=O)N[C@@H](CO)C(=O)NCC(=O)N[C@@H](CCC(=O)O)C(=O)N[C@@H](CO)C(=O)N[C@@H](CCCCNC(=O)C2CCC(CN3C(=O)C=CC3=O)CC2)C(N)=O)NC(=O)[C@H](Cc2ccc(O)cc2)N(C)C(=O)[C@H](Cc2ccc(O)cc2)NC(=O)[C@H](CCCNC(=N)N)NC(=O)[C@H](CCCNC(=N)N)NC(=O)[C@H]([C@@H](C)CC)NC1=O` (stereo partly shown) [894_5m_GGSGES_K(Mal)], under setting [1], the Kd was less than 1 nM.

With `CC[C@H](C)[C@@H]1NC(=O)[C@H](Cc2ccc(O)cc2)NC(=O)[C@H](Cc2ccc(O)cc2)NC(=O)[C@H](CC(N)=O)NC(=O)[C@H](Cc2c[nH]c3ccccc23)N(C)C(=O)[C@H](C(C)C)NC(=O)[C@H](Cc2ccccc2)NC(=O)[C@H](C(C)C)NC(=O)[C@H](C)NC(=O)CSC[C@@H](C(=O)NCC(=O)N[C@@H](CO)C(=O)N[C@@H](CO)C(=O)NCC(=O)N[C@@H](CO)C(=O)N[C@@H](CO)C(=O)N[C@@H](CCCCNC(=O)C2CCC(CN3C(=O)C=CC3=O)CC2)C(N)=O)NC(=O)[C@H](Cc2ccc(O)cc2)N(C)C(=O)[C@H](Cc2ccc(O)cc2)NC(=O)[C@H](CCCNC(=N)N)NC(=O)[C@H](CCCNC(=N)N)NC(=O)[C@H]([C@@H](C)CC)NC1=O` (stereo partly shown) [894_5m_GSSGSS_K(Mal)], the Kd under setting [1] was less than 1 nM.

As to `CC[C@H](C)[C@@H]1NC(=O)[C@H](Cc2ccc(O)cc2)NC(=O)[C@H](Cc2ccc(O)cc2)NC(=O)[C@H](CC(N)=O)NC(=O)[C@H](Cc2c[nH]c3ccccc23)N(C)C(=O)[C@H](C(C)C)NC(=O)[C@H](Cc2ccccc2)NC(=O)[C@H](C(C)C)NC(=O)[C@H](C)NC(=O)CSC[C@@H](C(=O)NCCOCCOCCOCCOCCOCCOCCOCCOCCC(=O)N[C@@H](CCCCNC(=O)C2CCC(CN3C(=O)C=CC3=O)CC2)C(N)=O)NC(=O)[C@H](Cc2ccc(O)cc2)N(C)C(=O)[C@H](Cc2ccc(O)cc2)NC(=O)[C@H](CCCNC(=N)N)NC(=O)[C@H](CCCNC(=N)N)NC(=O)[C@H]([C@@H](C)CC)NC1=O` (stereo partly shown) [894_5m_PEG08_K(Mal)], the Kd under setting [2] is less than 1 nM.

As to `CC[C@H](C)[C@@H]1NC(=O)[C@H](Cc2ccc(O)cc2)NC(=O)[C@H](Cc2ccc(O)cc2)NC(=O)[C@H](CC(N)=O)NC(=O)[C@H](Cc2c[nH]c3ccccc23)NC(=O)[C@H](C(C)C)NC(=O)[C@H](Cc2ccccc2)N(C)C(=O)[C@H](C(C)C)NC(=O)[C@H](C)NC(=O)CSC[C@@H](C(=O)NCC(=O)NCC(=O)NCC(=O)NCC(=O)N[C@@H](CO)C(=O)N[C@@H](CO)C(=O)N[C@@H](CCCCn2cc(CN3C(=O)C=CC3=O)nn2)C(N)=O)NC(=O)[C@H](Cc2ccc(O)cc2)N(C)C(=O)[C@H](Cc2ccc(O)cc2)NC(=O)[C@H](CCCNC(=N)N)NC(=O)[C@H](CCCCN)NC(=O)[C@H]([C@@H](C)CC)NC1=O` [894_11K_3MeF_G4S2_KTrzMal], the Kd under setting [2] is 1 to 100 nM.

Regarding `CC[C@H](C)[C@@H]1NC(=O)[C@H](Cc2ccc(O)cc2)NC(=O)[C@H](Cc2ccc(O)cc2)NC(=O)[C@H](CC(N)=O)NC(=O)[C@H](Cc2c[nH]c3ccccc23)N(C)C(=O)[C@H](C(C)C)NC(=O)[C@H](Cc2ccccc2)N(C)C(=O)[C@H](C(C)C)NC(=O)[C@H](C)NC(=O)CSC[C@@H](C(=O)NCC(=O)NCC(=O)NCC(=O)NCC(=O)N[C@@H](CO)C(=O)N[C@@H](CO)C(=O)N[C@@H](CCCCn2cc(CN3C(=O)C=CC3=O)nn2)C(N)=O)NC(=O)[C@H](Cc2ccc(O)cc2)N(C)C(=O)[C@H](Cc2ccc(O)cc2)NC(=O)[C@H](CCCNC(=N)N)NC(=O)[C@H](CCCCN)NC(=O)[C@H]([C@@H](C)CC)NC1=O` [894_11K_3Me_5Me_G4S2_KTrzMal], under setting [2], the Kd was in the range of 1 to 100 nM.

Turning to `CC[C@H](C)[C@@H]1NC(=O)[C@H](Cc2ccc(O)cc2)NC(=O)[C@H](Cc2ccc(O)cc2)NC(=O)[C@H](CC(N)=O)NC(=O)[C@H](Cc2c[nH]c3ccccc23)NC(=O)[C@H](C(C)C)NC(=O)[C@H](Cc2ccccc2)NC(=O)[C@H](C(C)C)NC(=O)[C@H](C)NC(=O)CSC[C@@H](C(=O)NCCOCCOCCOCCOCCOCCOCCOCCOCCOCCOCCOCCOCCOCCOCCOCCOCCOCCOCCOCCOCCOCCOCCOCCOCCOCCOCCOCCOCCOCCOCCOCCOCCOCCOCCOCCOCCC(=O)ON2C(=O)CCC2=O)NC(=O)[C@H](Cc2ccc(O)cc2)N(C)C(=O)[C@H](Cc2ccc(O)cc2)NC(=O)[C@H](CCCNC(=N)N)NC(=O)[C@H](CCCNC(=N)N)NC(=O)[C@H]([C@@H](C)CC)NC1=O` [JCR_hTfR_000894_PEG36_(NHS)], the Kd under setting [2] is less than 1 nM.

For `CC[C@H](C)[C@@H]1NC(=O)[C@H](Cc2ccc(O)cc2)NC(=O)[C@H](Cc2ccc(O)cc2)NC(=O)[C@H](CC(N)=O)NC(=O)[C@H](Cc2c[nH]c3ccccc23)NC(=O)[C@H](C(C)C)NC(=O)[C@H](Cc2ccccc2)NC(=O)[C@H](C(C)C)NC(=O)[C@H](C)NC(=O)CSC[C@@H](C(=O)NCCOCCOCCOCCOCCC(=O)NN)NC(=O)[C@H](Cc2ccc(O)cc2)N(C)C(=O)[C@H](Cc2ccc(O)cc2)NC(=O)[C@H](CCCNC(=N)N)NC(=O)[C@H](CCCNC(=N)N)NC(=O)[C@H]([C@@H](C)CC)NC1=O` [hTIR 000894_PEG4_(Hydrazide)], under setting [2], the Kd is less than 1 nM.

`CC[C@H](C)[C@@H]1NC(=O)[C@H](Cc2ccc(O)cc2)NC(=O)[C@H](Cc2ccc(O)cc2)NC(=O)[C@H](CC(N)=O)NC(=O)[C@H](Cc2c[nH]c3ccccc23)NC(=O)[C@H](C(C)C)NC(=O)[C@H](Cc2ccccc2)NC(=O)[C@H](C(C)C)NC(=O)[C@H](C)NC(=O)CSC[C@@H](C(=O)NCCOCCOCCOCCOCCOCCOCCOCCOCCOCCOCCOCCOCCOCCOCCOCCOCCOCCOCCOCCOCCOCCOCCOCCOCCOCCOCCOCCOCCOCCOCCOCCOCCOCCOCCOCCOCCC(=O)NN)NC(=O)[C@H](Cc2ccc(O)cc2)N(C)C(=O)[C@H](Cc2ccc(O)cc2)NC(=O)[C@H](CCCNC(=N)N)NC(=O)[C@H](CCCNC(=N)N)NC(=O)[C@H]([C@@H](C)CC)NC1=O` [hTIR_000894_PEG36_(Hydrazine)]: the Kd under setting [2] is less than 1 nM.

Take `CC[C@H](C)[C@@H]1NC(=O)[C@H](Cc2ccc(O)cc2)NC(=O)[C@H](Cc2ccc(O)cc2)NC(=O)[C@H](CC(N)=O)NC(=O)[C@H](Cc2c[nH]c3ccccc23)NC(=O)[C@H](C(C)C)NC(=O)[C@H](Cc2ccccc2)NC(=O)[C@H](C(C)C)NC(=O)[C@H](C)NC(=O)CSC[C@@H](C(=O)NCC(=O)N[C@@H](CCC(=O)O)C(=O)NCC(=O)N[C@@H](CCC(=O)O)C(=O)NCCOCCOCCOCCOCCOCCOCCOCCOCCOCCOCCOCCOCCC(=O)NN)NC(=O)[C@H](Cc2ccc(O)cc2)N(C)C(=O)[C@H](Cc2ccc(O)cc2)NC(=O)[C@H](CCCNC(=N)N)NC(=O)[C@H](CCCNC(=N)N)NC(=O)[C@H]([C@@H](C)CC)NC1=O` [hTfR_894_(GEGE)PEG12_Hydrazide]: the Kd under setting [2] was less than 1 nM.

With `CC[C@H](C)[C@@H]1NC(=O)[C@H](Cc2ccc(O)cc2)NC(=O)[C@H](Cc2ccc(O)cc2)NC(=O)[C@H](CC(N)=O)NC(=O)[C@H](Cc2c[nH]c3ccccc23)NC(=O)[C@H](C(C)C)NC(=O)[C@H](Cc2ccccc2)NC(=O)[C@H](C(C)C)NC(=O)[C@H](C)NC(=O)CSC[C@@H](C(=O)NCCOCCOCCOCCOCCOCCOCCOCCOCCOCCOCCOCCOCCC(=O)NN)NC(=O)[C@H](Cc2ccc(O)cc2)N(C)C(=O)[C@H](Cc2ccc(O)cc2)NC(=O)[C@H](CCCNC(=N)N)NC(=O)[C@H](CCCNC(=N)N)NC(=O)[C@](C)([C@@H](C)CC)NC1=O` [hTfR_000894_PEG11_(Hydrazine)], the equilibrium dissociation constant (Kd) under setting [2] was less than 1 nM.
